# Like-named read-outs stand apart in the source and are kept apart here.
# Legend:
# NF-kB = NF-kB reporter assay in Jurkat cells stimulated with aCD3/aCD28/PMA; assay type: cell-based; settings: read-out: NF-kB Reporter Assay IC50
# Procedure, shortened: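 Jurkat cells (25,000/well, serum-free RPMI 1640) preincubated 1 hr at 37° C with serially diluted compound, then stimulated with aCD3/aCD28/PMA (final 5 μg/mL, 5 μg/mL, 0.03 μg/mL) for 4 hr. Reporter luminescence read with One-Glo; IC50 derived.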
# MALT1 = molecular target: T1, MALT1 (Homo sapiens, UniProt Q9UDY8); test: MALT-1 Fluorogenic Peptide Cleavage Assay (MALT1 inhibition assay); assay type: biochemical; settings: Avi-tagged FL MALT-1, Ac-LRSR-AMC peptide substrate, 30 min pre-incubation, 90 min reaction
# T1 construct: Avi-tagged FL MALT-1 (Pharmaron, stored at −70° C.); Avi tag
# T1 sequence (Q9UDY8 1-824): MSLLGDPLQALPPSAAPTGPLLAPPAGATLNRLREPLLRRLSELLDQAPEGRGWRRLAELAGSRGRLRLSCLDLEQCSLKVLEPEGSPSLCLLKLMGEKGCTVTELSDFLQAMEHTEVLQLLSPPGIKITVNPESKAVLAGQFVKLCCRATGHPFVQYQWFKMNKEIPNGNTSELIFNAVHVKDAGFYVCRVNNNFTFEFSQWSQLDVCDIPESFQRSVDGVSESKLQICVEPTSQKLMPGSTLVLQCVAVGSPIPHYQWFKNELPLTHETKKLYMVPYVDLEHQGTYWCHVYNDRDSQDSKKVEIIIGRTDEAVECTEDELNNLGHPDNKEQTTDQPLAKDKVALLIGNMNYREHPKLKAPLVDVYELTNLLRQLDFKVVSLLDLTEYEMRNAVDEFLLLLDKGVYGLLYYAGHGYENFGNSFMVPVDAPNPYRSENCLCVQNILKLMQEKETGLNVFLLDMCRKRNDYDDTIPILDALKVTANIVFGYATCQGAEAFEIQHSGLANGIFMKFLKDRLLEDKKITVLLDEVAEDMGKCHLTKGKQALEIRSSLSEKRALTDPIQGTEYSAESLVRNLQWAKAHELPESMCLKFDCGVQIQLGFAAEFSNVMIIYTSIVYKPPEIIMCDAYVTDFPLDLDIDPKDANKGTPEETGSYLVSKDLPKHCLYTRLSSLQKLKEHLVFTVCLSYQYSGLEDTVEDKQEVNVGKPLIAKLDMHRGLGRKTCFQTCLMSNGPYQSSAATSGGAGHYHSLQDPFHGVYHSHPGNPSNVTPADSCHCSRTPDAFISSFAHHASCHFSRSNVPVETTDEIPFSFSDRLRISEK
# Procedure, shortened: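 Avi-tagged full-length MALT1 pre-incubated 30 min with compound (2% DMSO final), then cleavage of Ac-LRSR-AMC followed over 90 min at room temperature. AMC fluorescence read at 342/441 nm; % inhibition fitted to sigmoidal curves for IC50.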
# [1] = Homo sapiens, Jurkat, Jurkat cells, 1 hr compound incubation, aCD3/aCD28/PMA stimulation 4 hr, One-Glo readout
# [2] = Jurkat cells, 1 hr compound incubation, aCD3/aCD28/PMA stimulation 4 hr, One-Glo readout
IC50 (NF-kB; [1]) [nM],IC50 (MALT1) [nM],IC50 (NF-kB; [2]) [nM],Structure (SMILES),"IC50 (NF-kB; Homo sapiens, Jurkat) [nM]"
< 400,> 2500,–,"Cn1ncc2cccc(NS(=O)(=O)c3ccc(-n4cc5c(n4)CCOC5)nc3)c21 [Example I-247, N-(1-methylindazol-7-yl)-6-{4H,6H,7H-pyrano[4,3-c]pyrazol-2-yl}pyridine-3-sulfonamide]",–
> 2500,> 2500,–,"CN[C@@H]1CCCC[C@H]1N(C)c1ccc(S(=O)(=O)Nc2cccc3cnn(C)c23)cn1 [Example I-248, 6-{methyl[(1R,2R)-2-(methylamino)cyclohexyl]amino}-N-(1-methylindazol-7-yl)pyridine-3-sulfonamide]",–
< 400,> 2500,–,"COC1(c2cnn(-c3ccc(S(=O)(=O)Nc4cccc5cnn(C)c45)cn3)c2)CC1 [Example I-251, 6-(4-(1-methoxycyclopropyl)-1H-pyrazol-1-yl)-N-(1-methyl-1H-indazol-7-yl)pyridine-3-sulfonamide]",–
< 400,> 2500,–,"Cc1c(CO)cnn1-c1ccc(S(=O)(=O)Nc2cccc3cnn(C)c23)cn1 [Example I-252, 6-[4-(hydroxymethyl)-5-methylpyrazol-1-yl]-N-(1-methylindazol-7-yl)pyridine-3-sulfonamide]",–
400 to 1000,> 2500,–,"Cn1ncc2cccc(NS(=O)(=O)c3ccc(-c4cnn(C5COC5)c4)nc3)c21 [Example I-253, N-(1-methyl-1H-indazol-7-yl)-6-(1-(oxetan-3-yl)-1H-pyrazol-4-yl)pyridine-3-sulfonamide]",–
< 400,> 2500,–,"Cc1nc(-c2ccc(S(=O)(=O)Nc3cccc4cnn(C)c34)cn2)cn1C(F)(F)F [Example I-264, 6-(2-methyl-1-(trifluoromethyl)-1H-imidazol-4-yl)-N-(1-methyl-1H-indazol-7-yl)pyridine-3-sulfonamide]",–
< 400,> 2500,–,"Cn1ncc2cccc(NS(=O)(=O)c3ccc(-c4cnc(C5CC5)s4)nc3)c21 [Example I-265, 6-(2-cyclopropyl-1,3-thiazol-5-yl)-N-(1-methylindazol-7-yl)pyridine-3-sulfonamide]",–
400 to 1000,> 2500,–,"Cn1ncc2cccc(NS(=O)(=O)c3ccc(-c4cnc(C(C)(C)O)s4)nc3)c21 [Example I-267, 6-[2-(2-hydroxypropan-2-yl)-1,3-thiazol-5-yl]-N-(1-methylindazol-7-yl)pyridine-3-sulfonamide]",–
< 400,> 2500,–,"Cn1ncc2cccc(NS(=O)(=O)c3ccc(-c4cnn5c4CCC5)nc3)c21 [Example I-269, 6-(5,6-dihydro-4H-pyrrolo[1,2-b]pyrazol-3-yl)-N-(1-methyl-1H-indazol-7-yl)pyridine-3-sulfonamide]",–
< 400,> 2500,–,"Cn1ncc2cccc(NS(=O)(=O)c3ccc(-c4cnn5c4COCC5)nc3)c21 [Example I-270, 6-(6,7-dihydro-4H-pyrazolo[5,1-c][1,4]oxazin-3-yl)-N-(1-methyl-1H-indazol-7-yl)pyridine-3-sulfonamide]",–
< 400,> 2500,–,"Cn1ncc2cccc(NS(=O)(=O)c3ccc(-c4cnn5c4CCCC5)nc3)c21 [Example I-272, N-(1-methyl-1H-indazol-7-yl)-6-(4,5,6,7-tetrahydropyrazolo[1,5-a]pyridin-3-yl)pyridine-3-sulfonamide]",–
400 to 1000,< 400,–,"COc1ccc2c(F)nn(C)c2c1NS(=O)(=O)c1ccc(-n2cc(C(F)(F)F)cn2)nc1 [Example I-273, N-(3-fluoro-6-methoxy-1-methyl-1H-indazol-7-yl)-6-(4-(trifluoromethyl)-1H-pyrazol-1-yl)pyridine-3-sulfonamide]",–
< 400,> 2500,–,Cc1c(-c2ccc(S(=O)(=O)Nc3cccc4cnn(C)c34)cn2)cnn1C1COC1 [Example I-274],–
400 to 1000,> 2500,–,Cc1nn(C2COC2)cc1-c1ccc(S(=O)(=O)Nc2cccc3cnn(C)c23)cn1 [Example I-275],–
< 400,> 2500,–,"Cn1ncc2cccc(NS(=O)(=O)c3ccc(-n4cc(C(C)(C)C)cn4)nc3)c21 [Example I-276, 6-(4-tert-butylpyrazol-1-yl)-N-(1-methylindazol-7-yl)pyridine-3-sulfonamide]",–
400 to 1000,> 2500,–,Cn1ncc2cccc(NS(=O)(=O)c3ccc(-n4cc(C(C)(C)O)cn4)nc3)c21 [Example I-277],–
> 2500,> 2500,–,"COc1ccc2cnn(C)c2c1NS(=O)(=O)c1ccc(-n2cc(C(C)(C)O)cn2)nc1 [Example I-278, 6-(4-(2-hydroxypropan-2-yl)-1H-pyrazol-1-yl)-N-(6-methoxy-1-methyl-1H-indazol-7-yl)pyridine-3-sulfonamide]",–
< 400,> 2500,–,Cn1ncc2cccc(NS(=O)(=O)c3ccc(-n4cc(CO)cn4)nc3)c21 [Example I-279],–
< 400,400 to 1000,–,"COc1ccc2cnn(C)c2c1NS(=O)(=O)c1ccc(-n2cc(C(C)O)cn2)nc1 (centres unmarked) [Example I-280, 6-(4-(1-Hydroxyethyl)-1H-Pyrazol-1-yl)-N-(6-Methoxy-1-Methyl-1H-Indazol-7-yl)Pyridine-3-Sulfonamide]",–
–,1000 to 2500,< 400,"COc1ccc2cnn(C)c2c1NS(=O)(=O)c1ccc(-n2cc(C(C)O)cn2)nc1 (centres unmarked) [Example I-281, 6-(4-(1-Hydroxyethyl)-1H-Pyrazol-1-yl)-N-(6-Methoxy-1-Methyl-1H-Indazol-7-yl)Pyridine-3-Sulfonamide]",–
400 to 1000,> 2500,–,CC(O)c1cnn(-c2ccc(S(=O)(=O)Nc3cccc4cnn(C)c34)cn2)c1 (centres unmarked) [Example I-282],–
–,> 2500,< 400,CC(O)c1cnn(-c2ccc(S(=O)(=O)Nc3cccc4cnn(C)c34)cn2)c1 (centres unmarked) [Example I-283],–
< 400,400 to 1000,–,"COc1ccc2cnn(C)c2c1NS(=O)(=O)c1ccc(-n2cc(CO)cn2)nc1 [Example I-284, 6-[4-(hydroxymethyl)pyrazol-1-yl]-N-(6-methoxy-1-methylindazol-7-yl)pyridine-3-sulfonamide]",–
< 400,400 to 1000,–,"COc1ccc2cnn(C)c2c1NS(=O)(=O)c1ccc(-n2cc(C(C)(C)C)cn2)nc1 [Example I-285, 6-(4-tert-butylpyrazol-1-yl)-N-(6-methoxy-1-methylindazol-7-yl)pyridine-3-sulfonamide]",–
< 400,< 400,–,"COc1ccc2cnn(C)c2c1NS(=O)(=O)c1ccc(-n2cnc(C(F)(F)F)c2)nc1 [Example I-286, N-(6-methoxy-1-methylindazol-7-yl)-6-[4-(trifluoromethyl)imidazol-1-yl]pyridine-3-sulfonamide]",–
< 400,1000 to 2500,–,COc1ccc2cnn(C)c2c1NS(=O)(=O)c1ccc(-c2cnn3c2CCC3)nc1 [Example I-287],–

Structure (SMILES),IC50 (NF-kB; [1]) [nM],IC50 (MALT1) [nM],IC50 (NF-kB; [2]) [nM],"IC50 (NF-kB; Homo sapiens, Jurkat) [nM]"
"COc1ccc2c(F)nn(C)c2c1NS(=O)(=O)c1ccc(-n2cc(C)cn2)nc1 [Example I-249, N-(3-fluoro-6-methoxy-1-methyl-1H-indazol-7-yl)-6-(4-methyl-1H-pyrazol-1-yl)pyridine-3-sulfonamide]",–,< 400,–,400 to 1000
"Cn1ncc2cccc(NS(=O)(=O)c3ccc(-c4cnc(Cl)s4)nc3)c21 [Example I-250, 6-(2-chlorothiazol-5-yl)-N-(1-methyl-1H-indazol-7-yl)pyridine-3-sulfonamide]",–,1000 to 2500,–,< 400
"CC(C)c1ncc(-c2ccc(S(=O)(=O)Nc3cccc4cnn(C)c34)cn2)s1 [Example I-266, 6-(2-isopropyl-1,3-thiazol-5-yl)-N-(1-methylindazol-7-yl)pyridine-3-sulfonamide]",–,> 2500,–,< 400
"COC(C)(C)c1ncc(-c2ccc(S(=O)(=O)Nc3cccc4cnn(C)c34)cn2)s1 [Example I-268, 6-(2-(2-methoxypropan-2-yl)thiazol-5-yl)-N-(1-methyl-1H-indazol-7-yl)pyridine-3-sulfonamide]",–,> 2500,–,< 400
"Cc1ncc(-c2ccc(S(=O)(=O)Nc3cccc4cnn(C)c34)cn2)n1C(F)(F)F [Example I-271, 6-(2-methyl-1-(trifluoromethyl)-1H-imidazol-5-yl)-N-(1-methyl-1H-indazol-7-yl)pyridine-3-sulfonamide]",–,> 2500,–,< 400
